Calls of active or inactive are those of the source. No cut-off for these calls is given here.
Tests used:
[1] = target: von Hippel-Lindau disease tumor suppressor/Focal adhesion kinase 1 (Homo sapiens, UniProt Q05397+P40337); experiment: Protac activity at VHL/PTK2 in human A549 cells assessed as induction of PTK2 degradation at 1 to 100000 nM incubated for 18 hrs by protein capillary electrophoresis method; type: cell-based; conditions: dose 1-100000 nM
[2] = cells; conditions: Homo sapiens, HLF1, 144 h, read-out: pIC50 (converted)
Description: Antiproliferative activity against human HLF1 cells incubated for 6 days by CellTiter-Glo luminescent cell viability assay

[3] = system: HuCCT-1; experiment: cells; conditions: Homo sapiens, HuCCT-1, 144 h, read-out: pIC50 (converted)
Description: Antiproliferative activity against human HuCCT-1 cells incubated for 6 days by CellTiter-Glo luminescent cell viability assay

[4] = system: SK-HEP1; experiment: cells; conditions: Homo sapiens, SK-HEP1, 144 h, read-out: pIC50 (converted)
Description: Antiproliferative activity against human SK-HEP1 cells incubated for 6 days by CellTiter-Glo luminescent cell viability assay

[5] = system: HepG2; experiment: cells; conditions: Homo sapiens, HepG2, 144 h, read-out: pIC50 (converted)
Description: Antiproliferative activity against human HepG2 cells incubated for 6 days by CellTiter-Glo luminescent cell viability assay

[6] = system: SNU-398; experiment: cells; conditions: Homo sapiens, SNU-398, 144 h, read-out: pIC50 (converted)
Description: Antiproliferative activity against human SNU-398 cells incubated for 6 days by CellTiter-Glo luminescent cell viability assay

[7] = cells; conditions: Homo sapiens, HuH-1, 144 h, read-out: pIC50 (converted)
Description: Antiproliferative activity against human HuH-1 cells incubated for 6 days by CellTiter-Glo luminescent cell viability assay

[8] = system: Huh-7; experiment: cells; conditions: Homo sapiens, Huh-7, 144 h, read-out: pIC50 (converted)
Description: Antiproliferative activity against human Huh-7 cells incubated for 6 days by CellTiter-Glo luminescent cell viability assay

[9] = cells; conditions: Homo sapiens, Hep3B, 144 h, read-out: pIC50 (converted)
Description: Antiproliferative activity against human Hep3B2.1-7 cells incubated for 6 days by CellTiter-Glo luminescent cell viability assay

[10] = system: SNU-387; experiment: cells; conditions: Homo sapiens, SNU-387, 144 h, read-out: pIC50 (converted)
Description: Antiproliferative activity against human SNU-387 cells incubated for 6 days by CellTiter-Glo luminescent cell viability assay

[11] = system: HLE; experiment: cells; conditions: Homo sapiens, 144 h, read-out: pIC50 (converted)
Description: Antiproliferative activity against human HLE cells incubated for 6 days by CellTiter-Glo luminescent cell viability assay

[12] = system: SNU-423; experiment: cells; conditions: Homo sapiens, SNU-423, 144 h, read-out: pIC50 (converted)
Description: Antiproliferative activity against human SNU-423 cells incubated for 6 days by CellTiter-Glo luminescent cell viability assay

von Hippel-Lindau disease tumor suppressor/Focal adhesion kinase 1, sequence (P40337 whole entry partner): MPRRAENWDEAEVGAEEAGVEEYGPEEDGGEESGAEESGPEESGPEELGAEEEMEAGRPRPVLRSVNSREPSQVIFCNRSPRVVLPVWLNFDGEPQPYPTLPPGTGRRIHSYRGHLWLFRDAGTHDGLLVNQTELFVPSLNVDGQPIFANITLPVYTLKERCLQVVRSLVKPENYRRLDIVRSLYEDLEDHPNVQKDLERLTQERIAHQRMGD
von Hippel-Lindau disease tumor suppressor/Focal adhesion kinase 1, sequence (Q05397 2-1052 limits assumed): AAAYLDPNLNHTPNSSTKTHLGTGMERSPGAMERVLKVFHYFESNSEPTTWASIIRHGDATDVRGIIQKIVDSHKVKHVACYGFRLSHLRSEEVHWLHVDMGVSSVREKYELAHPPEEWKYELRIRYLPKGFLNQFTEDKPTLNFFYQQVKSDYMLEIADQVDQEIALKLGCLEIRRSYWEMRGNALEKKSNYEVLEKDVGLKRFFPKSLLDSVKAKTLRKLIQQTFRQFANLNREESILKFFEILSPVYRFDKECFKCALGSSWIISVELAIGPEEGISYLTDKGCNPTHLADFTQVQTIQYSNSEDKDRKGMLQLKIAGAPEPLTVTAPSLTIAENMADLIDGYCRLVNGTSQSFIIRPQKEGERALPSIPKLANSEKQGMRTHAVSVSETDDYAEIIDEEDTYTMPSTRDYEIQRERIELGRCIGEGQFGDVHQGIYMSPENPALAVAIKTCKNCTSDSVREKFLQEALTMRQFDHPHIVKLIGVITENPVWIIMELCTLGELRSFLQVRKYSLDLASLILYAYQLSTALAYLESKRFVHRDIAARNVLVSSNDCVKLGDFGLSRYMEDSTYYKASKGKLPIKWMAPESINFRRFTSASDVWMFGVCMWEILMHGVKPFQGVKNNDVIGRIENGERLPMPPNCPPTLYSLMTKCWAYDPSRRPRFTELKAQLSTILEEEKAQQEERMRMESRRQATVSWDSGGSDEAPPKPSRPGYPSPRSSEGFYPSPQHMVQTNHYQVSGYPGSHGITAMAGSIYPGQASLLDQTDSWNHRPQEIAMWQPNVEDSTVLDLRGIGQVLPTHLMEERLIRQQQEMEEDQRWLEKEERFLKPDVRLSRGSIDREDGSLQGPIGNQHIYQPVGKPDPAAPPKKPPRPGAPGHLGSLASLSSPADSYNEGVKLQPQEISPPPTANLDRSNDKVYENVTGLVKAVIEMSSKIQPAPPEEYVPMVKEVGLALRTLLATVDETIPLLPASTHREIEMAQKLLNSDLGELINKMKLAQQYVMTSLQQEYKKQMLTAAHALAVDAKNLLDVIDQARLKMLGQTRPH

| Activity [1] | IC50 [2] | IC50 [3] | IC50 [4] | IC50 [5] | IC50 [6] | IC50 [7] | IC50 [8] | IC50 [9] | IC50 [10] | IC50 [11] | IC50 [12] | SMILES |
| --- | --- | --- | --- | --- | --- | --- | --- | --- | --- | --- | --- | --- |
| inactive |  |  |  |  |  |  |  |  |  |  |  | COc1cc(C(=O)NCCOCCOCCOCC(=O)N[C@H](C(=O)N2C[C@@H](O)C[C@H]2C(=O)NCc2ccc(-c3scnc3C)cc2)C(C)(C)C)ccc1Nc1ncc(C(F)(F)F)c(Oc2cccc3c2C(=O)CC3)n1 |
|  | 3.98 µM | 6.31 µM | 6.31 µM | 3.16 µM | 6.31 µM | 3.98 µM | 3.98 µM | 5.01 µM | 6.31 µM | 7.94 µM | 3.98 µM | COc1cc(C(=O)NC2CCN(C)CC2)ccc1Nc1ncc(C(F)(F)F)c(Oc2cccc3c2C(=O)CC3)n1 |

Source: ChEMBL document CHEMBL4673225, “Highly Selective PTK2 Proteolysis Targeting Chimeras to Probe Focal Adhesion Kinase Scaffolding Functions” (J Med Chem, 2019)
